Test results: patent US9260408B2, “Dihydroquinoline-2-one derivatives” (Hoffmann-La Roche Inc., priority 2011, dated 2016)
Where a name gives a salt, the structure may show the parent alone.

Legend:
human CYP11B2 = target: T1, human CYP11B2 (Homo sapiens, UniProt P19099); assay: G-402 cellular enzyme assay, human CYP11B2 (aldosterone release, HTRF); assay type: cell-based; conditions: G-402 cells expressing human CYP11B2; 1 μM Deoxycorticosterone
T1 construct: expressed in transfected cells
T1 sequence (P19099 25-503): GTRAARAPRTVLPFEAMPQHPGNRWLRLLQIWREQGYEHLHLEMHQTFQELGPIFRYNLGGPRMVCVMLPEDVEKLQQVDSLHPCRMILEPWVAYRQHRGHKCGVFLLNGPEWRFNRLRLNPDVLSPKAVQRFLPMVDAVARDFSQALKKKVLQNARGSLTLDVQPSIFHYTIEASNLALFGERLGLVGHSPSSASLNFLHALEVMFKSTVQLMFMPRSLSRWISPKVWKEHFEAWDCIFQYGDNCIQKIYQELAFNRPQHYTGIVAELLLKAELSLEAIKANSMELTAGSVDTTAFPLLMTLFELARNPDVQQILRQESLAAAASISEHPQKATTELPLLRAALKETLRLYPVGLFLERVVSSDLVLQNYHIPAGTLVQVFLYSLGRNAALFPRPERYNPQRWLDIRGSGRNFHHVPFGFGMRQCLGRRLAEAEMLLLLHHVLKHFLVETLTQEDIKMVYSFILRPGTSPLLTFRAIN
Summary of the method: (§1)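 G-402 cells stably expressing human CYP11B2 or CYP11B1, in DMEM/F12 with 2.5% charcoal-treated FCS, were incubated 16 h with compound plus 1 μM deoxycorticosterone (CYP11B2) or 1 μM deoxycortisol (CYP11B1). Aldosterone or cortisol in the supernatant measured by HTRF; EC50 from a 4-parameter MMF fit.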

human CYP11B1 = target: T2, human CYP11B1 (Homo sapiens, UniProt P15538); assay: G-402 cellular enzyme assay, human CYP11B1 (cortisol release, HTRF); assay type: cell-based; conditions: G-402 cells expressing human CYP11B1; 1 μM Deoxycortisol
T2 construct: expressed in transfected cells
T2 sequence (P15538 25-503): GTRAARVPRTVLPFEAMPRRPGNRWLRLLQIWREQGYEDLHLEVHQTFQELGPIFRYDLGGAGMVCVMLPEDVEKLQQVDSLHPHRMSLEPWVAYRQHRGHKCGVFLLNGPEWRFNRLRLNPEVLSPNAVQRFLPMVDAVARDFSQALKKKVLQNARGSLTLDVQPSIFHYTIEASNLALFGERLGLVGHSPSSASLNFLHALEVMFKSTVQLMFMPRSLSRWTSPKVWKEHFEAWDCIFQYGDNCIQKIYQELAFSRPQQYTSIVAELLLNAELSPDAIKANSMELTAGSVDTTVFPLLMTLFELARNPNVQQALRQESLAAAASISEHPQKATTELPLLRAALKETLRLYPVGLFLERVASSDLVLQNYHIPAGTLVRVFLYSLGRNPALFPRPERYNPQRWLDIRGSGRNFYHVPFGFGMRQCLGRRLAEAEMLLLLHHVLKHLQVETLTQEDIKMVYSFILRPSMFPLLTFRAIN
Summary of the method: as §1

EC50 (human CYP11B2) | EC50 (human CYP11B1) | SMILES
30 nM | 139 nM | CN1C(=O)CCc2cc(-c3cncc(O[C@H]4CCN(C(=O)OC(C)(C)C)C4)c3)c(F)cc21 [Example 52, (S)-3-[5-(7-fluoro-1-methyl-2-oxo-1,2,3,4-tetrahydro-quinolin-6-yl)-pyridin-3-yloxy]-pyrrolidine-1-carboxylic acid tert-butyl ester]
250 nM | 15000 nM | Cc1c(-c2ccc3c(c2)CCC(=O)N3C)cncc1C(C)N (single isomer, unassigned) [Example 240, 6-[5-((R or S)-1-Amino-ethyl)-4-methyl-pyridin-3-yl]-1-methyl-3,4-dihydro-1H-quinolin-2-one hydrochloride]
1 nM | 72 nM | CN1C(=O)CCc2cc(-c3cncc(O[C@H]4CC[C@H](NS(C)(=O)=O)CC4)c3)ccc21 [Example 245, N-{(trans)-4-[5-(1-Methyl-2-oxo-1,2,3,4-tetrahydro-quinolin-6-yl)-pyridin-3-yloxy]-cyclohexyl}-methanesulfonamide]
3 nM | 28 nM | Cc1cccnc1C(=O)N(C)Cc1cncc(-c2ccc3c(c2)CCC(=O)N3C)c1 [Example 199, 3-Methyl-pyridine-2-carboxylic acid methyl-[5-(1-methyl-2-oxo-1,2,3,4-tetrahydro-quinolin-6-yl)-pyridin-3-ylmethyl]-amide]
11 nM | 350 nM | CN1C(=O)CCc2cc(-c3cncc(NCCO)c3)ccc21 [Example 4, 6-[5-(2-Hydroxy-ethylamino)-pyridin-3-yl]-1-methyl-3,4-dihydro-1H-quinolin-2-one]
100 nM | 3690 nM | Cc1noc(C)c1C(=O)NC(C)c1cncc(-c2ccc3c(c2)CCC(=O)N3C)c1C (single isomer, unassigned) [Example 242, 3,5-Dimethyl-isoxazole-4-carboxylic acid {(R or S)-1-[4-methyl-5-(1-methyl-2-oxo-1,2,3,4-tetrahydro-quinolin-6-yl)-pyridin-3-yl]-ethyl}-amide]
47 nM | 2430 nM | Cc1noc(C(F)(F)F)c1C(=O)NCc1cncc(-c2ccc3c(c2)CCC(=O)N3C)c1 [Example 136]
5 nM | 69 nM | CN1C(=O)CCc2cc(-c3cncc(C4=CCN(C(=O)OC(C)(C)C)CC4)c3)ccc21 [Example 247, 5-(1-Methyl-2-oxo-1,2,3,4-tetrahydro-quinolin-6-yl)-3′,6′-dihydro-2′H-[3,4′]bipyridinyl-1′-carboxylic acid tert-butyl ester]
24 nM | 436 nM | CN1C(=O)CCc2cc(-c3cncc(C4(N(C)C(=O)c5ncccc5Cl)CC4)c3)ccc21 [Example 201, 3-Chloro-pyridine-2-carboxylic acid methyl-{1-[5-(1-methyl-2-oxo-1,2,3,4-tetrahydro-quinolin-6-yl)-pyridin-3-yl]-cyclopropyl}-amide]
7 nM | 188 nM | CN(Cc1cncc(-c2ccc3c(c2)CCC(=O)N3C)c1)C(=O)c1cnn(C)c1 [Example 198, 1-Methyl-1H-pyrazole-4-carboxylic acid methyl-[5-(1-methyl-2-oxo-1,2,3,4-tetrahydro-quinolin-6-yl)-pyridin-3-ylmethyl]-amide]
2 nM | 179 nM | Cc1oncc1C(=O)NCc1cncc(-c2ccc3c(c2)CCC(=O)N3C)c1 [Example 101]
19 nM | 1080 nM | CN1C(=O)CCc2cc(-c3cncc(N4CCC[C@H]4CO)c3)ccc21 [Example 5, 6-[5-((S)-2-Hydroxymethyl-pyrrolidin-1-yl)-pyridin-3-yl]-1-methyl-3,4-dihydro-1H-quinolin-2-one]
7 nM | 251 nM | Cc1c(-c2ccc3c(c2)CCC(=O)N3C)cncc1C(C)NC(=O)c1ncccc1Cl (single isomer, unassigned) [Example 241, 3-Chloro-pyridine-2-carboxylic acid {(R or S)-1-[4-methyl-5-(1-methyl-2-oxo-1,2,3,4-tetrahydro-quinolin-6-yl)-pyridin-3-yl]-ethyl}-amide]
23 nM | 1340 nM | CCC(=O)N1CC[C@H]1COc1cncc(-c2ccc3c(c2)CCC(=O)N3C)c1 [Example 94]
44 nM | 1590 nM | CCC(=O)NCc1cncc(-c2ccc3c(c2)CCC(=O)N3C)c1 [Example 37, N-[5-(1-Methyl-2-oxo-1,2,3,4-tetrahydro-quinolin-6-yl)-pyridin-3-ylmethyl]-propionamide]
14 nM | 572 nM | Cc1noc(C)c1C(=O)N(C)Cc1cncc(-c2ccc3c(c2)CCC(=O)N3C)c1 [Example 188, 3,5-Dimethyl-isoxazole-4-carboxylic acid methyl-[5-(1-methyl-2-oxo-1,2,3,4-tetrahydro-quinolin-6-yl)-pyridin-3-ylmethyl]-amide]
4650 nM | > 10000 nM | CCS(=O)(=O)NCc1cncc(-c2ccc3c(c2)C(C)(C)CC(=O)N3C)c1 [Example 17]
271 nM | 1000 nM | CN1C(=O)CCc2cc(-c3cncc(O[C@H]4CCCN(C(=O)OC(C)(C)C)C4)c3)ccc21 [Example 49, (S)-3-[5-(1-Methyl-2-oxo-1,2,3,4-tetrahydro-quinolin-6-yl)-pyridin-3-yloxy]-piperidine-1-carboxylic acid tert-butyl ester]
319 nM | 17900 nM | CN1C(=O)CCc2cc(-c3cncc(N4C(=O)CC[C@H]4CO)c3)ccc21 [Example 13]
84 nM | 1820 nM | Cn1c(=O)ccc2cc(-c3cncc(C4(N)CC4)c3)ccc21 [Example 262, 6-[5-(1-Amino-cyclopropyl)-pyridin-3-yl]-1-methyl-1H-quinolin-2-one]
430 nM | > 3000 nM | CC(=O)OCC(=O)Nc1cncc(-c2ccc3c(c2)CCC(=O)N3C)c1 [Example 2, Acetic acid [5-(1-methyl-2-oxo-1,2,3,4-tetrahydro-quinolin-6-yl)-pyridin-3-ylcarbamoyl]-methyl ester]
315 nM | 13100 nM | CC(N)c1cncc(-c2ccc3c(c2)CCC(=O)N3C)c1 (single isomer, unassigned) [Example 65, 6-[5-((R or S)-1-amino-ethyl)-pyridin-3-yl]-1-methyl-3,4-dihydro-1H-quinolin-2-one hydrochloride]
41 nM | 1700 nM | CCS(=O)(=O)NCc1cncc(-c2ccc3c(c2)CCC(=O)N3C)c1C [Example 194, Ethanesulfonic acid [4-methyl-5-(1-methyl-2-oxo-1,2,3,4-tetrahydro-quinolin-6-yl)-pyridin-3-ylmethyl]-amide]
25 nM | 2320 nM | CCN(Cc1cncc(-c2ccc3c(c2)CCC(=O)N3C)c1)S(=O)(=O)CC [Example 181, Ethanesulfonic acid ethyl-[5-(1-methyl-2-oxo-1,2,3,4-tetrahydro-quinolin-6-yl)-pyridin-3-ylmethyl]-amide]
18 nM | 570 nM | CN1C(=O)CCc2cc(-c3cncc(NCCO)n3)c(F)cc21 [Example 26]
6 nM | 151 nM | Cc1ocnc1C(=O)NCc1cncc(-c2ccc3c(c2)CCC(=O)N3C)c1 [Example 112]
5 nM | 138 nM | Cc1cnc(C(=O)NCc2cncc(-c3ccc4c(c3)CCC(=O)N4C)c2)cn1 [Example 124]
